Two compounds from patent US20080221131A1, “THIENOPYRIMIDINEDIONES AND THEIR USE IN MODULATION OF AUTOIMMUNE DISEASE” (priority 2003, published 2008) can be followed below.

The test relates to PMA/ionomycin-stimulated PBMC proliferation. Briefly: Inhibition of PMA/ionomycin-stimulated peripheral blood mononuclear cell proliferation. The test is classed as cell-based. Conditions: human PBMC, PMA 0.5 ng/ml + ionomycin 500 ng/ml, 72 hours, 3H-thymidine incorporation; read-out: PIA50 (the source's name) (converted). As for the experimental part: Inhibition of PMA/Ionomycin-Stimulated Peripheral Blood Mononuclear Cell Proliferation
The assay for PMA/ionomycin-stimulated PBMC proliferation was performed in 96-well flat-bottomed microtitre plates. Compounds were prepared as 10 mM stock solutions in dimethyl sulfoxide. A 50-fold dilution of this was prepared in RPMI and serial dilutions were prepared from this solution. 10 μl of the 50-fold diluted stock, or dilutions of it, were added to the well to give concentrations in the assay starting at 9.5 μM and going down. Into each well was placed 1×10^5 PBMC, prepared from human peripheral blood from a single donor, in RPMI1640 medium supplemented with 10% human serum, 2 mM glutamine and penicillin/streptomycin. Phorbol myristate acetate (PMA) (0.5 ng/ml final concentration) and ionomycin (500 ng/ml final concentration) were added to these cells in supplemented RPMI1640 medium (as above) so that the final volume of the assay was 0.2 ml. The cells were incubated at 37° C. in a humidified atmosphere at 5% carbon dioxide for 72 hours. ^3H-Thymidine (0.5 μCi) was added for the final 6 hours of the incubation. The level of radioactivity incorporated by the cells was then determined and this is a measure of proliferation.

With `Cc1nn(-c2ncccn2)c(C)c1Cc1sc2c(c1C(=O)N1C[C@H](O)CO1)c(=O)n(C)c(=O)n2C(C)C` [Example 1, 6-[[3,5-dimethyl-1-(2-pyrimidinyl)-1H-pyrazol-4-yl]methyl]-5-[[(4S)-4-hydroxy-2-isoxazolidinyl]carbonyl]-3-methyl-1-(1-methylethyl)thieno[2,3-d]pyrimidine-2,4(1H,3H)-dione], the IC50 is 5.01 nM.
In the case of `Cc1nn(-c2nccs2)c(C)c1Cc1sc2c(c1C(=O)N1C[C@H](O)CO1)c(=O)n(C)c(=O)n2C(C)C` [Example 3, (S)-2-[[6-[[3,5-Dimethyl-1-(2-thiazolyl)-1H-pyrazol-4-yl]methyl]-1,2,3,4-tetrahydro-3-methyl-1-(1-methylethyl)-2,4-dioxothieno[2,3-d]pyrimidin-5-yl]carbonyl]-4-isoxazolidinol], the IC50 is 0.851 nM.
